Publication PMC12081876, “Identification of PTGR2 inhibitors as a new therapeutic strategy for diabetes and obesity” (EMBO Molecular Medicine, 2025)

How the values were obtained:
[1] = system: HFHSD-fed obese C57BL6/J mice; experiment: Energy expenditure, food intake and physical activity (indirect calorimetry); format: in vivo, mouse; settings: 40 mg/kg/day ip, vs vehicle
Protocol: Metabolic measurements (food and water intake, locomotor activity, VO2 consumption and VCO2 production) were obtained using the Promethion metabolic phenotyping system (Sable Systems). The mice were housed in the Promethion system with ad libitum access to food and water. Monitoring was performed for 5 days after mice have been acclimatized to the cages for 2 days.
All values were expressed as mean ± S.E.M. All reported sample sizes were biologically independent but not technically repeatedly measured. Skewed data was logarithmized to approximate normal distribution. Comparisons between two separate groups were performed using Student t-tests. Comparisons among multiple groups were conducted using a one-way analysis of variance with post hoc analyses. Statistical analyses were conducted using GraphPad Prism 8.0 and SAS 9. Energy expenditure between genotypes was analyzed using the generalized linear model according to international guidance (Speakman et al, [2013]; Tschöp et al, [2011]). Energy expenditure (expressed as kcal/hr) was regressed on body weight using the command “glm” implemented in STATA 14.0 (Speakman et al, [2013]; Tschöp et al, [2011]). Two-sided p-values < 0.05 were considered statistically significant. The sample size was determined according to our previous experience. There was no exclusion/inclusion criteria, blinding and randomization.

Myc-DDK-mPPARγ C313A = biological target: T1, Myc-DDK-mPPARγ C313A (Mus musculus, UniProt P37238, C313A); experiment: Reciprocal co-immunoprecipitation in HEK293T cells, mPPARγ C313A; format: binding, murine; settings: 15-keto-PGE2 treated
T1 construct: host or cells: HEK293T
Protocol: HEK293T cells were transfected with murin PPARγ (mPPARγ) and mPPARγ C313A plasmids for immunoprecipitation, which are Myc-DDK-tagged (OriGene, USA). […] According to the manufacturer’s protocol, proteins were immunoprecipitated using Anti-FLAG® M2 Magnetic Beads (2.5 mg/ml; cat. no. F1804, Sigma-Aldrich). Subsequently, the eluted proteins were separated by SDS-PAGE and subjected to immunoblot analysis. Following separation by SDS-PAGE, proteins were stained with Coomassie blue and SYPRO-Ruby stain. The protein bands of interest were cut out for in-gel tryptic digestion followed by C18 Zip-Tip clean-up (Millipore, USA). For proteomic shotgun identifications, nanoLC-nanoESI-MS/MS analysis was performed on a nanoAcquity system (Waters, USA) connected to the LTQ Orbitrap Velos hybrid MS (Thermo Electron, USA) equipped with a PicoView nanospray interface (New Objective, USA). Samples were loaded onto a C18 BEH column (75 μm × 25 cm length, 130 Å, 1.7 μm particle size) (Waters, USA) and separated by a segmented gradient form in 60 min from 5% to 40% acetonitrile (with 0.1% formic acid) at a constant flow rate of 300 nL/min with a column temperature of 35 °C. The mass spectrometer was operated in the data-dependent mode. […] Protein identification and modification were analyzed using Mascot Daemon (Matrix Science Inc., Chicago). […]

[2] = system: murine PPARγ Ser273 phosphorylation; experiment: PPARγ Ser273 phosphorylation in adipose tissue of mice; format: in vivo, mouse; settings: 40 mg/kg/day, 3 weeks, HFHSD
Protocol: The epididymal adipose tissues were obtained and lysed in RIPA buffer supplemented with 1X cOmplete™, EDTA-free Protease Inhibitor Cocktail (cat no.04693132001, Roche) and 1X PhosSTOP™ (cat. no. 4906845001, Roche).
The protein concentrations of tissue lysates were measured by Bradford reagent (cat. no. BP500-0006, Bio-Rad). The protein samples were mixed with 6X sample buffer (0.3 M Tris-HCl, pH 6.8, 0.6 M DTT, 12% SDS, 0.6% Bromophenel blue and 60% glycerol) and heated at 70 °C for 5 min. 30 μg of each sample were separated by 10% SDS-PAGE gel and were transferred to PVDF membrane. The membrane was blocked by 3% BSA in Tris-buffered saline containing 0.1% Tween-20 for 1 h at room temperature and incubated with primary antibody at 4 °C overnight. Primary antibodies include anti-Ser273 phospho-PPARγ (1:1000, cat. no. BS-4888R, Bioss), anti-PPARγ (1:1500, cat. no.16643-1-AP, Proteintech) and anti-GAPDH (1:5000, cat. no. GTX100118, GeneTex). On the next day, the membranes were incubated with the anti-rabbit IgG HRP-secondary antibody (1:10,000, cat. no. GTX213110-01, GeneTex) for 1 h at RT. Immunoblots were developed using the Immobilon Forte Western HRP Substrate (cat. no. WBLUF0500, Lot Number: 231445, Millipore) and exposed by MultiGel-21 (cat. no. MGIS-21-C2, EBL). Protein expression of phospho-PPARγ was analyzed using ImageJ software and normalized against PPARγ and GAPDH.

**Q.** How did the energy expenditure ([1]; age 8 weeks) turn out when `CCCCCC(=O)/C=C/[C@H]1[C@H](O)CC(=O)[C@@H]1C/C=C\CCCC(=O)O` [15-keto-PGE2, 15-keto-prostaglandin E2] was run?
**A.** Higher energy expenditure

**Q.** What about the Food intake [1] of the same compound?
**A.** similar

**Q.** And the physical activity [1]?
**A.** similar

**Q.** And the “co-immunoprecipitation with 15-keto-PGE2-cysteine antibody, mPPARγ C313A” value (Myc-DDK-mPPARγ C313A)?
**A.** not in samples expressing mPPARγ with C313A mutation

**Q.** And the “phosphorylation of PPARγ Ser273” value [2]?
**A.** dose-dependently reduced phosphorylation of Ser273
